Laboratory results as given in ChEMBL document CHEMBL1139037, “New Gly-Pro-Glu (GPE) analogues: expedite solid-phase synthesis and biological activity” (Bioorg Med Chem Lett, 2006).
Non-standard residues stand in square brackets, D forms with d. Residues, ends and D or L forms follow the SMILES beside them. Oic = O=C(O)[C@@H]1C[C@@H]2CCCC[C@@H]2N1; Hyp = O=C(O)[C@@H]1C[C@@H](O)CN1; Pip = O=C(O)[C@@H]1CCCCN1; Ac6c = NC1(C(=O)O)CCCCC1; Nle = CCCC[C@H](N)C(=O)O; Aze = O=C(O)[C@@H]1CCN1; Ac3c = NC1(C(=O)O)CC1

Assays:
Glutamate NMDA receptor = test: Displacement of L-[3H]glutamate from glutamate receptor in rat brain synaptic membrane; format: cell membranes
[1] = biological target: Glutamate NMDA receptor (Rattus norvegicus) (UniProt P35439+Q00959+Q00960+Q00961+Q62645+Q8VHN2+Q9R1M7); test: Neuroprotective activity in rat hippocampal neurons at 100 uM; format: functional, tissue-based; conditions: Hippocampus

| SMILES | Ki (Glutamate NMDA receptor) [µM] | Activity [1] [%] |
| --- | --- | --- |
| NCC(=O)N1C2CCC1(C(=O)N[C@@H](CCC(=O)O)C(=O)O)CC2 | 0.48 | – |
| N[C@@H](CC(=O)O)C(=O)N1CCC[C@H]1C(=O)N[C@@H](CCC(=O)O)C(=O)O (H-Asp-Pro-Glu-OH) | 41.3 | – |
| NCC(=O)NC1(C(=O)N[C@@H](CCC(=O)O)C(=O)O)CC1 (H-Gly-[Ac3c]-Glu-OH) | > 100 | 27 |
| NCC(=O)NC1(C(=O)N[C@@H](CCC(=O)O)C(=O)O)CCCCC1 (H-Gly-[Ac6c]-Glu-OH) | > 100 | 27 |
| NCC(=O)N1CC[C@H]1C(=O)N[C@@H](CCC(=O)O)C(=O)O (H-Gly-[Aze]-Glu-OH) | > 100 | 27 |
| NCC(=O)N1[C@H](C(=O)N[C@@H](CCC(=O)O)C(=O)O)C[C@@H]2CCCC[C@@H]21 (H-Gly-[Oic]-Glu-OH) | 22.4 | – |
| CC[C@H](C)[C@H](N)C(=O)N1CCC[C@H]1C(=O)N[C@@H](CCC(=O)O)C(=O)O (H-Ile-Pro-Glu-OH) | > 100 | – |

Next, values leading:

| Ki (Glutamate NMDA receptor) [µM] | Activity [1] [%] | SMILES |
| --- | --- | --- |
| 15.5 | – | NCC(=O)N1C[C@@H](N)C[C@H]1C(=O)N[C@@H](CCC(=O)O)C(=O)O |
| 5.4 | – | C[C@@H](N)C(=O)N1CCC[C@H]1C(=O)N[C@@H](CCC(=O)O)C(=O)O |
| 2.66 | – | C[C@H](N)C(=O)N1CCC[C@H]1C(=O)N[C@@H](CCC(=O)O)C(=O)O |
| 9.24 | – | NCC(=O)N1C[C@H](O)C[C@H]1C(=O)N[C@@H](CCC(=O)O)C(=O)O (H-Gly-[Hyp]-Glu-OH) |
| 2.39 | – | NCC(=O)N1CCCC[C@H]1C(=O)N[C@@H](CCC(=O)O)C(=O)O (H-Gly-[Pip]-Glu-OH) |
| 22 | – | NCCCC[C@H](N)C(=O)N1CCC[C@H]1C(=O)N[C@@H](CCC(=O)O)C(=O)O (H-Lys-Pro-Glu-OH) |
| 4.85 | – | N[C@@H](Cc1ccccc1)C(=O)N1CCC[C@H]1C(=O)N[C@@H](CCC(=O)O)C(=O)O (H-Phe-Pro-Glu-OH) |
| 19.5 | – | CCCC[C@H](N)C(=O)N1CCC[C@H]1C(=O)N[C@@H](CCC(=O)O)C(=O)O (H-[Nle]-Pro-Glu-OH) |
